As usually defined, the IC50 is the concentration needed to halve the response being measured. High values mean weaker potency in that assay, low ones greater potency in that assay. The term melting point denotes the temperature of the solid-liquid transition.

For data set [1], the target named is T1, HNE (human neutrophil elastase) (Homo sapiens, UniProt P08246).
T1 construct: purchased Calbiochem
T1 sequence (P08246 30-267): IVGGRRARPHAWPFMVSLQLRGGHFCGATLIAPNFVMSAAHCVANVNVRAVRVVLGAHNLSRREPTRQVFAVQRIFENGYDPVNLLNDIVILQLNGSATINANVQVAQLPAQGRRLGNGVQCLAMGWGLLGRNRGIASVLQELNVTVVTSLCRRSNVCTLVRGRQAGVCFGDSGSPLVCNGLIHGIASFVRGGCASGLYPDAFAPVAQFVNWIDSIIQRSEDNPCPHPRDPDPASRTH
The data set is described as follows: HNE inhibition assay (fluorogenic substrate cleavage). Conditions: mean ± SD of three independent experiments; NA: no inhibitory activity at the highest concentration tested (50 µM). It counts as biochemical.
Procedure: Compounds were dissolved in 100% DMSO at 5 mM stock concentrations. […] The HNE inhibition assay was performed in black flat-bottom 96-well microtiter plates. Briefly, a buffer solution containing 200 mM Tris–HCl, pH 7.5, 0.01% bovine serum albumin, and 0.05% Tween-20 and 20 mU/mL of HNE (Calbiochem) was added to wells containing different concentrations of each compound. The reaction was initiated by addition of 25 µM elastase substrate (N-methylsuccinyl-Ala-Ala-Pro-Val-7-amino-4-methylcoumarin, Calbiochem) in a final reaction volume of 100 µl/well. Kinetic measurements were obtained every 30 s for 10 min at 25 °C using a Fluoroskan Ascent FL fluorescence microplate reader (Thermo Electron, MA) with excitation and emission wavelengths set at 355 and 460 nm, respectively. For all compounds tested, the concentration of inhibitor that caused 50% inhibition of the enzymatic reaction (IC50) was calculated by plotting % inhibition versus logarithm of inhibitor concentration (at least six points). The data are presented as the mean values of at least three independent experiments with relative standard deviations of <15%.

A short description of data set [2]: Analysis of compound stability: spontaneous hydrolysis in aqueous buffer. Conditions: 25 °C, 0.05 M phosphate buffer, pH 7.3; read-out: t1/2 for spontaneous hydrolysis (converted). It is filed as physicochemical. How it is done:
Spontaneous hydrolysis of selected derivatives was evaluated at 25 °C in 0.05 M phosphate buffer, pH 7.3. Kinetics of hydrolysis were monitored by measuring changes in the absorbance spectra over time using a SpectraMax Plus microplate spectrophotometer (Molecular Devices, Sunnyvale, CA). Absorbance (At) at the characteristic absorption maxima of each compound was measured at the indicated times until no further absorbance decreases occurred (A∞)[52]. Using these measurements, we created semilogarithmic plots of log(At–A∞) versus time, and k′ values were determined from the slopes of these plots. Half-conversion times were calculated using t1/2 = 0.693/k′, as described previously[36]^,[37].

In data set [3] the target is T2, HNE (Homo sapiens, UniProt P08246).
T2 construct: purchased Calbiochem
T2 sequence (P08246 30-267): T1 sequence (P08246 30-267)
Nature of the data set: Kinetics of HNE inhibition (double-reciprocal Lineweaver–Burk plots). It is filed as biochemical. Particulars: Lineweaver–Burk plot of fluorogenic substrate hydrolysis. From the text: To better understand the mechanism of action of these isoxazolone HNE inhibitors, we performed kinetic experiments.
Figure 7. Kinetics of HNE inhibition by compounds 7d and 8d. Representative double reciprocal Lineweaver–Burk plots are shown from three independent experiments.

The target in data set [4] is T2, HNE. The data set is described as follows: Reversibility of HNE inhibition over extended periods of time. It is filed as biochemical. Particulars: 8 µM compound. On the procedure:
The inhibition was maximal for up to 60 min with compound 7e and >120 min for the other tested compounds (4a, 4b, and 7a). However, inhibition by the compounds was eventually reversed, and full recovery of HNE activity was observed by 4 h after treatment with 8 µM of the compound (e.g. see Figure 6).
Figure 6. […] HNE was incubated with the indicated compounds (8 µM), and kinetic curves monitoring substrate cleavage catalysed by HNE over time are shown. Representative curves are from two independent experiments.

For `CC(=O)Nc1ccc(-c2c(C)noc2OC(=O)c2cccc(C)c2)cc1` [Compound 8d, 4-(4-Acetamidophenyl)-3-methylisoxazol-5-yl3-methylbenzoate], the melting point was 57 to 60 °C. 540 ± 110 nM corresponded to half-maximal inhibition in data set [1] (IC50). For the same molecule, the half-life in data set [2] was 2.9 h. For the same molecule, the “mechanism of HNE inhibition” value on HNE [3] is “competitive”.
The molecule `CC(=O)Nc1ccc(-c2c(C)n(C(=O)c3cccc(C)c3)oc2=O)cc1` [Compound 7d, N-(4-(3-methyl-2-(3-methylbenzoyl)-5-oxo-2,5-dihydroisoxazol-4-yl)phenyl)acetamide] had a melting point of 159 to 160 °C. The IC50 in data set [1] is 50 ± 20 nM. Further, the half-life in data set [2] is 3.9 h. At HNE [4], the “time after which HNE inhibition was reversed” value is on record as roughly 30 min. Also, at HNE [3], the “mechanism of HNE inhibition” value is “competitive”.
`Cc1c(-c2ccccc2)c(=O)on1C(=O)C1CC1` [Compound 4b, 2-(Cyclopropanecarbonyl)-3-methyl-4-phenylisoxazol-5(2H)-one]: the melting point was in the range of 83 to 86 °C. This molecule registered an IC50 in data set [1] of 59 ± 18 nM. Moreover, the half-life in data set [2] is 8.3 h. Also, the “time for which HNE inhibition was maximal” value at HNE [4] is greater than 120 min.

For the origin of these results see paper PMC6032016, “Synthesis, biological evaluation, and molecular modelling studies of potent human neutrophil elastase (HNE) inhibitors” (Journal of Enzyme Inhibition and Medicinal Chemistry, 2018).
